From patent US11306071B2, “Heterocyclic compounds as adenosine antagonists” (Nuvation Bio Inc., priority 2019, dated 2022) come the findings set out here.

The target in assay [1] is HEK-293 cells expressing human recombinant adenosine A1 receptor (Homo sapiens (Human), UniProt P30542). The experiment in a line: cAMP assay (Assay 2), A1 receptor. It counts as cell-based. As for the experimental part: (§1) The functional activity of compounds was tested using Assay 2, below, to detect the presence of cAMP. Assay 1 is an alternative assay for this purpose. Activation of G-protein coupled receptors (such as A2A) results in activation of adenylyl cyclase which converts ATP into cAMP which is used as a downstream signaling molecule. Therefore, molecules which act as GPCR (or specifically A2A receptor) antagonists cause a decrease in intracellular cAMP concentration.
Chain of HEK-293 cells expressing human recombinant adenosine A1 receptor (P30542 whole entry): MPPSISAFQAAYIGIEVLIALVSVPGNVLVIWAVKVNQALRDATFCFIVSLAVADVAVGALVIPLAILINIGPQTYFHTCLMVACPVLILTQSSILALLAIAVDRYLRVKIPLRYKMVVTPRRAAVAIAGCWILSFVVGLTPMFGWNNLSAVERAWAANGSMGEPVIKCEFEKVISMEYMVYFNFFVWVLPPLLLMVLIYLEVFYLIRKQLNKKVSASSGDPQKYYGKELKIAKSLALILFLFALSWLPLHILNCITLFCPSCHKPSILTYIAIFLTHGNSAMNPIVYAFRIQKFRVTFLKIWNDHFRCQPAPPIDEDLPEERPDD
(§2) Assay 2 (Table B2): This assay used HEK-293 cells expressing human recombinant adenosine A2A receptor (or, alternatively, A1 receptor) that were grown prior to the test in media without antibiotic. 100 nL of test articles at 100x of final concentration were transferred to assay plate by Echo. Cells were washed twice with 5 mL of PBS and 10 μL of cells were mixed with 5 mL PBS. After aspirating the PBS and adding 1.5 mL versine, cells were incubated at 37° C. for 2-5 min. After centrifugation, 4 mL of medium was added and adjusted cell density to 5,000 cells/well with Stimulation Buffer. 10 μL of cells were aliquoted to the assay plate, centrifuged at 1000 rpm for 1 minute, and incubated for 60 minutes at room temperature. 5 μL 4× Eu-cAMP tracer solution and 5 μL 4× Ulight™-anti-cAMP solution were added to assay plate, followed by centrifugation and 60-minute incubation at room temperature. Plates were read on EnVision.
Background: Changes in cAMP serve as a functional read-out for many G protein-coupled receptors.

For assay [2], the target named is adenosine A2a (human) membrane (Homo sapiens (Human), UniProt P29274). The assay is described as follows: A2A adenosine receptor radioligand binding assay ([3H] CGS-21680). As to conditions: radioligand [3H] CGS-21680 6 nM. The method, then:
A second A2A adenosine receptor radioligand binding assay protocol was used. The protocol used adenosine A2a (human) membrane (PerkinElmer RBHA2AM400UA) at a concentration of 5 μg/well/100 μl and the radioligand [3H] CGS-21680 (Cat No. PerkinElmer-NET1021250UC) at a final concentration of 6 nM. Testing compounds were diluted with DMSO to make 8-point 4-fold serial dilution, starting at 0.2 mM. CGS-15943 was the reference compound. 1 μl of compounds/high control/low control was transferred to the assay plate according to a plate map, followed by 100 μl of membrane stocks and 100 μl of radioligand, in assay buffer (50 mM Tris-HCl, 10 mM MgCl2, 1 mM EDTA, pH 7.4). The plate was sealed and incubated at RT for 2 hours. Unifilter-96 GF/C filter plates (Perkin Elmer Cat #6005174) were soaked with 50 μl of 0.3% PEI per well for at least 0.5 hour at room temperature. When the binding assays were completed, the reaction mixtures were filtered through GF/C plates using Perkin Elmer Filtermate Harvester, and each plate washed 4 times with cold wash buffer (50 mM Tris-HCl, 154 mM NaCl, pH 7.4). The filter plates were dried for 1 hour at 50 degrees. After drying, the bottom of the filter plate wells was sealed, 50 μl of Perkin Elmer Microscint 20 cocktail was added, and the top of the filter plate was sealed. ^3H trapped on the filter was counted using Perkin Elmer MicroBeta2 Reader. The data were analyzed with GraphPad Prism 5 to obtain binding IC50 values. The “Inhibition [% Control]” was calculated using the equation: % Inh=(1-Background subtracted Assay value/Background subtracted HC value)*100, where HC is high control.

In assay [3] the target is HEK-293 cells expressing human recombinant adenosine A2A receptor (Homo sapiens (Human), UniProt P29274). The assay is described as follows: cAMP assay (Assay 2), A2A receptor. It is filed as cell-based. As for the experimental part:
as §1, §2

Assay [4] has as its target adenosine A1 (human) membrane (Homo sapiens (Human), UniProt P30542). The assay is described as follows: A1 adenosine receptor radioligand binding assay ([3H] DPCPX). Conditions: 200 nM compound; radioligand [3H] DPCPX 1 nM. As for the experimental part:
A second A1 adenosine receptor radioligand binding assay protocol was used. The protocol used adenosine A1 (human) membrane (PerkinElmer ES-010-M400UA) at a concentration of 2.5 μg/well/100 μl and the radioligand [3H] DPCPX (Cat No. PerkinElmer-NET974250UC) at a final concentration of 1 nM. Testing compounds were tested at a final concentration of 200 nM. CGS-15943, the reference compound, was tested in an 8-point 4-fold serial dilution, starting at a top concentration of 1 μM. 1 μl of compounds/high control/low control was transferred to the assay plate according to a plate map, followed by 100 μl of membrane stocks and 100 μl of radioligand, in assay buffer (25 mM HEPES, 5 mM MgCl2, 1 mM CaCl2, 100 mM NaCl, pH 7.4). The plate was sealed and incubated at RT for 1 hour. Unifilter-96 GF/C filter plates (Perkin Elmer Cat #6005174) were soaked with 50 μl of 0.3% PEI per well for at least 0.5 hour at room temperature. When the binding assays were completed, the reaction mixtures were filtered through GF/C plates using Perkin Elmer Filtermate Harvester, and each plate washed 4 times with cold wash buffer (25 mM HEPES, 5 mM MgCl2, 1 mM CaCl2, 100 mM NaCl, pH 7.4). The filter plates were dried for 1 hour at 50 degrees. After drying, the bottom of the filter plate wells was sealed, 50 μl of Perkin Elmer Microscint 20 cocktail was added, and the top of the filter plate was sealed. ^3H trapped on the filter was counted using Perkin Elmer MicroBeta2 Reader. The data were analyzed with GraphPad Prism 5 to obtain binding IC50 values for the reference compound. The “Inhibition [% Control]” was calculated using the equation: % Inh=(1-Background subtracted Assay value/Background subtracted HC value)*100, where HC is high control.

Structures are written as SMILES.

A word on the IC50: it is the concentration that inhibits the measured activity by half. In general, inhibition refers to the drop in the measured response relative to a control, in per cent. A low value points to little suppression.

Chain of adenosine A1 (human) membrane (P30542 whole entry): as above
Chain of adenosine A2a (human) membrane (P29274 whole entry): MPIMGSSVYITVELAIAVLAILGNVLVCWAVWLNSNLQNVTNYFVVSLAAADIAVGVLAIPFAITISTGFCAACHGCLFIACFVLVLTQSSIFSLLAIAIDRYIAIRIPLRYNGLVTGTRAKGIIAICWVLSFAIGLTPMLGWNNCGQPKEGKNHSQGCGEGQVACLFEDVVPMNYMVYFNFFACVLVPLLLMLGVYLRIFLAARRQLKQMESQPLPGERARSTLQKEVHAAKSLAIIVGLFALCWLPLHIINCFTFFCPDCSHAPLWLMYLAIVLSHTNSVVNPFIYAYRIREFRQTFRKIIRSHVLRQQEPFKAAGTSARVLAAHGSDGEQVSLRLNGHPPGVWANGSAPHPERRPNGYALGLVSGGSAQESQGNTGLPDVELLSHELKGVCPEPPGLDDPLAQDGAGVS
Chain of HEK-293 cells expressing human recombinant adenosine A2A receptor (P29274 whole entry): as above

For `CC(NC(=O)c1nc(-c2ccc3ncccc3c2)c(-c2ccccc2)nc1N)c1ccccn1` (centres unmarked) [compound 73, 3-amino-5-phenyl-N-(1-(pyridin-2-yl)ethyl)-6-(quinolin-6-yl)pyrazine-2-carboxamide], the IC50 in assay [1] was 0.403 µM; in assay [2] it was 0.0031 µM; in assay [3] it was 0.053 µM. In assay [4], this compound returned an inhibition at 0.2 µM of 61%.

In the case of `C[C@H](NC(=O)c1nc(-c2ccc3ncccc3c2)c(-c2ccccc2)nc1N)c1ccccn1` [compound 75, (S)-3-amino-5-phenyl-N-(1-(pyridin-2-yl)ethyl)-6-(quinolin-6-yl)pyrazine-2-carboxamide], the results for the 50% inhibitory concentration (IC50) in assay [1], in assay [2] and in assay [3] were 0.219 µM, 0.0025 µM and 0.025 µM, respectively. In addition, the inhibition at 0.2 µM in assay [4] was determined as 63%.

In the case of `C[C@@H](NC(=O)c1nc(-c2ccc3ncccc3c2)c(-c2ccccc2)nc1N)c1ccccn1` [compound 76, (R)-3-amino-5-phenyl-N-(1-(pyridin-2-yl)ethyl)-6-(quinolin-6-yl)pyrazine-2-carboxamide], the half-maximal inhibitory concentration (IC50) is 0.804 µM in assay [1], 0.0034 µM in assay [2] and 0.024 µM in assay [3]. Further, testing at 0.2 µM in assay [4] gave an inhibition of 45%.

Regarding `N#Cc1cccc(CNC(=O)c2nc(-c3ccc4ncccc4c3)c(-c3ccccc3)nc2N)n1` [compound 98, 3-amino-N-((6-cyanopyridin-2-yl)methyl)-5-phenyl-6-(quinolin-6-yl)pyrazine-2-carboxamide], the IC50 in assay [1] was determined as 0.011 µM; in assay [2], 0.0008 µM; in assay [3], 0.018 µM. In assay [4], this compound had an inhibition at 0.2 µM of 92%.

On to `CC(C)(NC(=O)c1nc(-c2ccc3ncccc3c2)c(-c2ccccc2)nc1N)c1ccccn1` [compound 108, 3-amino-5-phenyl-N-(2-(pyridin-2-yl)propan-2-yl)-6-(quinolin-6-yl)pyrazine-2-carboxamide], for which the IC50 in assay [1] worked out at 0.326 µM; in assay [2] it was 0.0013 µM; in assay [3], 0.055 µM. Further, in assay [4], the inhibition at 0.2 µM turned out to be 47%.
